These results are taken from ChEMBL document CHEMBL5291721, “A preclinical secondary pharmacology resource illuminates target-adverse drug reaction associations of marketed drugs” (Nat Commun, 2023).

The target of one test is T1, Adenosine receptor A3 (Homo sapiens, UniProt P0DMS8).
T1 sequence (P0DMS8 whole entry): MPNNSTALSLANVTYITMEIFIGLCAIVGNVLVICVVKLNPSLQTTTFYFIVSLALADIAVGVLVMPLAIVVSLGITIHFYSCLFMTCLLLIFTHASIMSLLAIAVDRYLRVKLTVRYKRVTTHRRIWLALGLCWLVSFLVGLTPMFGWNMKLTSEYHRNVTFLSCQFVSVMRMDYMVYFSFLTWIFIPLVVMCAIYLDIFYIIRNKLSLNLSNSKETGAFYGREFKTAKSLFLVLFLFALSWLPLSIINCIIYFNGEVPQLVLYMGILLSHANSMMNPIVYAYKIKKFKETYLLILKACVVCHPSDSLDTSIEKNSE

Test [1] concerns the target T2, Alpha-2A adrenergic receptor (Homo sapiens, UniProt P08913).
T2 sequence (P08913 whole entry): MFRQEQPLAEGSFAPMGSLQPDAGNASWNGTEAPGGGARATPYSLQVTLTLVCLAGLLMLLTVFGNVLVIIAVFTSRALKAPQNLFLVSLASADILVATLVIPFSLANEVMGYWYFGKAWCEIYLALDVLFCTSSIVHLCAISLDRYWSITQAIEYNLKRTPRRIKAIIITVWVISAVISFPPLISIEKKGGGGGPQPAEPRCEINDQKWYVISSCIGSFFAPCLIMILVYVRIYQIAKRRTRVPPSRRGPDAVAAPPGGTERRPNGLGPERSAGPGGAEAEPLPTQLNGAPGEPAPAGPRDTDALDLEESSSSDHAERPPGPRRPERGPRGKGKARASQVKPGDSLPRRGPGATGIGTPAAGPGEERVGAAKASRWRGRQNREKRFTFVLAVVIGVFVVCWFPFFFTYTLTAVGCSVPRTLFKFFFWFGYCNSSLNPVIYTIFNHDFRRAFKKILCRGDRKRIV
Type of test: functional, cell-based.

Test [2] has as its target T3, Cholecystokinin receptor type A (Homo sapiens, UniProt P32238).
T3 sequence (P32238 whole entry): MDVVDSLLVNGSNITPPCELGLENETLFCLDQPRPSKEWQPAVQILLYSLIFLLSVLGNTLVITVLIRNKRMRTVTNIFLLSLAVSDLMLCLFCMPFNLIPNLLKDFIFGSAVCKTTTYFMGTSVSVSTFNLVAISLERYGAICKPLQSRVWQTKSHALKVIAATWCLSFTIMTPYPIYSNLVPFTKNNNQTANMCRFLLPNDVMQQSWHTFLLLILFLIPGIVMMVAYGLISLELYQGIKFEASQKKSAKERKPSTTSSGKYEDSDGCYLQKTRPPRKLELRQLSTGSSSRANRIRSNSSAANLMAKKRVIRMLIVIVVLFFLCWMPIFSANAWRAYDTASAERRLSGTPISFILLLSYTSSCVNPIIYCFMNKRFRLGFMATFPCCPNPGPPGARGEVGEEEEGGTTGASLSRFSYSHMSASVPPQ

The target in test [3] is Growth hormone secretagogue receptor type 1 (Homo sapiens, UniProt Q92847).
Sequence of Growth hormone secretagogue receptor type 1 (Q92847 whole entry): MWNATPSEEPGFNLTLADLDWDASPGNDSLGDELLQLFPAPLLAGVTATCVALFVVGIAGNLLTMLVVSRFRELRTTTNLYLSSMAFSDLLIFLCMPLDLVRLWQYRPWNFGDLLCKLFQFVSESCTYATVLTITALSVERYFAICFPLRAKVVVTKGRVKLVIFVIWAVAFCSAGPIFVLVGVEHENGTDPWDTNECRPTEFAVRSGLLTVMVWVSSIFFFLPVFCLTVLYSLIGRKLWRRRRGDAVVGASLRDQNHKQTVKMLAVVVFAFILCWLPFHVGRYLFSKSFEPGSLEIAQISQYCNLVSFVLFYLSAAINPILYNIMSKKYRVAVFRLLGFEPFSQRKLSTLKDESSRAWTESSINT
Test [4] concerns the target 5-hydroxytryptamine receptor 2B (Homo sapiens, UniProt P41595). Format: functional, cell-based.
Another test concerns the target Motilin receptor (Homo sapiens, UniProt O43193).
Test [5] concerns the target T4, Prostaglandin G/H synthase 1 (Rattus norvegicus, UniProt Q63921).
T4 sequence (Q63921 whole entry): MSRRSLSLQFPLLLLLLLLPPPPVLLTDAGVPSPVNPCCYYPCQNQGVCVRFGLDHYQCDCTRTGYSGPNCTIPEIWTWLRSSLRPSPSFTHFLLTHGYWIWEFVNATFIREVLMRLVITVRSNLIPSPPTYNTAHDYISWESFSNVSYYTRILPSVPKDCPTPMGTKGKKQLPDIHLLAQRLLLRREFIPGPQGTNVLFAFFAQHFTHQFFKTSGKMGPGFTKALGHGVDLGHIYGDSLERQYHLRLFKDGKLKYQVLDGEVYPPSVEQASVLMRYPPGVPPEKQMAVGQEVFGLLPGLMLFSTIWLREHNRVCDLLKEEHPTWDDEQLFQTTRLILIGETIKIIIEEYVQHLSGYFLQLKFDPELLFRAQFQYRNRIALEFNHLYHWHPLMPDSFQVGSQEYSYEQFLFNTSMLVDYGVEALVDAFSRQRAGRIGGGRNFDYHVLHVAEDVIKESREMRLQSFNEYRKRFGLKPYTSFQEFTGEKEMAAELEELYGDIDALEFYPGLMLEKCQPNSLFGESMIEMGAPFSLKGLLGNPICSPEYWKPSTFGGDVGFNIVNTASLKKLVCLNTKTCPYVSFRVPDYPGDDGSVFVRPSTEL
Type of test: functional.

Test [6] deals with T5, Amine oxidase [flavin-containing] A (Homo sapiens, UniProt P21397).
T5 sequence (P21397 whole entry): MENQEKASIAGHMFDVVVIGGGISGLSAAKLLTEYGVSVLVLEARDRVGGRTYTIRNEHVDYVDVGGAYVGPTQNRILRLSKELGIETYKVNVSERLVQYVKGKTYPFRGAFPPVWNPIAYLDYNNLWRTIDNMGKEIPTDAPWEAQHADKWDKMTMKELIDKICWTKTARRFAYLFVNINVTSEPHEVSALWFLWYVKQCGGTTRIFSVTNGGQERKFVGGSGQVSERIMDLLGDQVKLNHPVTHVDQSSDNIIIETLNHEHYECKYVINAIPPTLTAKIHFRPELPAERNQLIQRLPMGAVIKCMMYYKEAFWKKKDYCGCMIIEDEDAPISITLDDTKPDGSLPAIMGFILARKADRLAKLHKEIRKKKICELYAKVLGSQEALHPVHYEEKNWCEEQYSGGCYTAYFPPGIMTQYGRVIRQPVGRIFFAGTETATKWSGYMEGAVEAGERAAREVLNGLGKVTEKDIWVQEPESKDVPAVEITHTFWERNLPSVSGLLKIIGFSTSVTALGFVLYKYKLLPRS
Format: functional.

Test [7] concerns the target cGMP-inhibited 3',5'-cyclic phosphodiesterase 3A (Homo sapiens, UniProt Q14432). Format: functional.
The target of a further test is D(3) dopamine receptor (Homo sapiens, UniProt P35462).
Sequence of D(3) dopamine receptor (P35462 whole entry): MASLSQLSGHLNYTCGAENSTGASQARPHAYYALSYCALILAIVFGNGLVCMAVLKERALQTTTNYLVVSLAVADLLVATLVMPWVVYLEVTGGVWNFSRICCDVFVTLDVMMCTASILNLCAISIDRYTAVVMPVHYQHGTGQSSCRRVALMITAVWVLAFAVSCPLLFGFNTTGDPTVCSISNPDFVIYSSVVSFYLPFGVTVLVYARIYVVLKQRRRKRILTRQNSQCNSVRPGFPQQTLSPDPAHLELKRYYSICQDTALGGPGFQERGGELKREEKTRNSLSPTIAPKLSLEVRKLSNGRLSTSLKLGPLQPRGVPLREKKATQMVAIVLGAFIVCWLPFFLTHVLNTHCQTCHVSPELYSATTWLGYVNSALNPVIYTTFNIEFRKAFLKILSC

The structures appear in SMILES notation. Some results are limits rather than exact numbers.
Further: assay procedure not described here.

Sequence of Motilin receptor (O43193 whole entry): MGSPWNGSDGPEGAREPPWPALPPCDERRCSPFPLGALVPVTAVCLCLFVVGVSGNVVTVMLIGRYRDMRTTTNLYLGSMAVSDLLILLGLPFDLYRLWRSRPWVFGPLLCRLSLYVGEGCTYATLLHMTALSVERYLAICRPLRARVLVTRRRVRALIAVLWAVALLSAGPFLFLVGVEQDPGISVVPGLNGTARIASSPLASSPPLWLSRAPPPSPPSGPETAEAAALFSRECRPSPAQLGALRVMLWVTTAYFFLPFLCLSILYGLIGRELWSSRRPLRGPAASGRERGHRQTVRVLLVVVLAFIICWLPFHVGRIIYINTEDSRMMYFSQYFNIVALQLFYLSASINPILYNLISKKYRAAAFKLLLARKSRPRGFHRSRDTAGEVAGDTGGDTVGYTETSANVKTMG
Sequence of cGMP-inhibited 3',5'-cyclic phosphodiesterase 3A (Q14432 whole entry): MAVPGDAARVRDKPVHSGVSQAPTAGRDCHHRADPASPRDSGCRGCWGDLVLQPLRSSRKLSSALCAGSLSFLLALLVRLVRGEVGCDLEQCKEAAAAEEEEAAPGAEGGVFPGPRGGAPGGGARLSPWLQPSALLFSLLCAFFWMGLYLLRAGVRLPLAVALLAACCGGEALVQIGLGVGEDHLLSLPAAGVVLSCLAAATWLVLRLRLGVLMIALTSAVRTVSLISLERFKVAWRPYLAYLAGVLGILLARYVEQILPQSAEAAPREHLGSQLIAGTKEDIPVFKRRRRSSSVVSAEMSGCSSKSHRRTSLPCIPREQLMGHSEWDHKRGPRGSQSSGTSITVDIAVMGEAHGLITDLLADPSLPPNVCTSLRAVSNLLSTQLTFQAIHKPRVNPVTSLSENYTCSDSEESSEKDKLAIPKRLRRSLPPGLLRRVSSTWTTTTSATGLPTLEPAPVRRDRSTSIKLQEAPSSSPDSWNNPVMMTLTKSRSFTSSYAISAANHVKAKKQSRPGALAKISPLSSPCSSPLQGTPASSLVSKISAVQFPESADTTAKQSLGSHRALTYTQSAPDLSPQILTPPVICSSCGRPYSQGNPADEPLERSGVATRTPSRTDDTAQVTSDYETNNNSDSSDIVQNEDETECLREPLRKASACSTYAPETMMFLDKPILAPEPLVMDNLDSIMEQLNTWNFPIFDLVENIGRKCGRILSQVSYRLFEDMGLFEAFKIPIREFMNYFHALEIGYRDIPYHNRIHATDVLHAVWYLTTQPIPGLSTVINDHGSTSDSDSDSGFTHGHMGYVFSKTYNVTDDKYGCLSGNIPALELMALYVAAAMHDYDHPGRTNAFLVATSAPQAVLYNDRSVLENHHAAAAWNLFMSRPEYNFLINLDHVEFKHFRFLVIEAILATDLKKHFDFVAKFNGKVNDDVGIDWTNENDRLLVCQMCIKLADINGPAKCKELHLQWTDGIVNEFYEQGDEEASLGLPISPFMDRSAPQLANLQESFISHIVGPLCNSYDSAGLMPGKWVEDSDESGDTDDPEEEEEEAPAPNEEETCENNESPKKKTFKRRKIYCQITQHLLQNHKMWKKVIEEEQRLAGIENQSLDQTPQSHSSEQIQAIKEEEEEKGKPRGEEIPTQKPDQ
Sequence of 5-hydroxytryptamine receptor 2B (P41595 whole entry): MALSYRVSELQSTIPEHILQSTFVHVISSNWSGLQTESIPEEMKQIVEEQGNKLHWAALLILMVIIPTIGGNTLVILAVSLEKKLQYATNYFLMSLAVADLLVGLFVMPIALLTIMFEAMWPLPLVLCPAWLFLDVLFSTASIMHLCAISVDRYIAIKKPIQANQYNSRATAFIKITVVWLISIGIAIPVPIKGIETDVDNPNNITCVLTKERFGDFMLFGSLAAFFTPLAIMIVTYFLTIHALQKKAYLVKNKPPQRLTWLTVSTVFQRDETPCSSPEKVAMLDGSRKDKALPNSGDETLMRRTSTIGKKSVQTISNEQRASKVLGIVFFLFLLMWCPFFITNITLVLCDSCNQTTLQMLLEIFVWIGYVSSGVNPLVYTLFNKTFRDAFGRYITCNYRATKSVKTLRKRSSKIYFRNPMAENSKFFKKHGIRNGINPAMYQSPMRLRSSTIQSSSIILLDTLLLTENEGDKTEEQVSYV

For `CO[C@@H]1[C@@H](OC(N)=O)[C@@H](O)[C@H](Oc2ccc3c(O)c(NC(=O)c4ccc(O)c(CC=C(C)C)c4)c(=O)oc3c2C)OC1(C)C` [NOVOBIOCIN], the AC50 (on Adenosine receptor A3; in test [1]; in test [2]; in test [3]; in test [4]; on Motilin receptor) was over 30 µM throughout. The AC50 (in test [5]; in test [6]; in [7]; at D(3) dopamine receptor) was over 30 µM in each case.

Consider `CCC1(c2ccccc2)C(=O)NCNC1=O` [PRIMIDONE], for which the AC50 (at Adenosine receptor A3; in test [1]; in [2]; in [3]; in [4]; at Motilin receptor) was over 10 µM each time. Moreover, the AC50 is over 10 µM in [5], over 10 µM in test [6], over 30 µM in test [7] and over 30 µM at D(3) dopamine receptor.

In the case of `CC(=O)SCC(Cc1ccccc1)C(=O)NCC(=O)OCc1ccccc1` (stereo not given) [RACECADOTRIL], the AC50 (on Adenosine receptor A3; in test [1]; in test [2]; in test [3]; in [4]; on Motilin receptor) was over 30 µM throughout. The AC50 (in [5]; in test [6]; in [7]; on D(3) dopamine receptor) was over 30 µM throughout.

On to `CCOc1ccccc1OCCN[C@H](C)Cc1ccc(OC)c(S(N)(=O)=O)c1` [TAMSULOSIN], for which the AC50 at Adenosine receptor A3 was over 30 µM; in test [1], 4.77 µM; in test [2], over 30 µM; in [3] it was over 30 µM; in test [4], over 10 µM; at Motilin receptor, over 10 µM. For the same compound, the AC50 in test [5] was over 30 µM; in test [6], over 10 µM; in [7], over 30 µM; at D(3) dopamine receptor, 0.0032 µM.

As to `C[C@H](Cn1cnc2c(N)ncnc21)OCP(=O)(O)O` [TENOFOVIR ANHYDROUS], the AC50 (at Adenosine receptor A3; in [1]; in test [2]; in test [3]; in test [4]; on Motilin receptor) was over 30 µM throughout. Besides, the AC50 (in test [5]; in test [6]; in test [7]; on D(3) dopamine receptor) was over 30 µM throughout.

`COc1cc2c(cc1OC)C1CC(=O)C(CC(C)C)CN1CC2` (stereo not given) [TETRABENAZINE]: the AC50 was over 30 µM at Adenosine receptor A3; 18 µM in test [1]; over 30 µM in [2]; over 30 µM in test [3]; over 30 µM in [4]; over 30 µM on Motilin receptor. Further, the AC50 (in [5]; in test [6]; in test [7]; at D(3) dopamine receptor) was over 30 µM each time.

As to `CC(C)(CO)c1cc2cc(NC(=O)C3(c4ccc5c(c4)OC(F)(F)O5)CC3)c(F)cc2n1C[C@@H](O)CO` [TEZACAFTOR], the AC50 (at Adenosine receptor A3; in test [1]; in [2]; in [3]; in [4]; at Motilin receptor) was over 30 µM each time. Also, the AC50 (in test [5]; in test [6]; in test [7]; on D(3) dopamine receptor) was over 30 µM in each case.

On to `CN(C)CCN(Cc1ccccc1)c1ccccn1` [TRIPELENNAMINE], for which the AC50 (at Adenosine receptor A3; in [1]; in [2]; in [3]; in test [4]; on Motilin receptor) was over 10 µM throughout. Also, the AC50 (in test [5]; in test [6]; in test [7]; at D(3) dopamine receptor) was over 10 µM in each case.

Consider `Cc1c(C)c2c(c(C)c1O)CCC(C)(COc1ccc(CC3SC(=O)NC3=O)cc1)O2` (stereo not given) [TROGLITAZONE], for which the AC50 at Adenosine receptor A3 is 8.48 µM; in test [1] it was over 30 µM; in test [2] it was over 30 µM; in test [3] it was over 30 µM; in test [4], over 30 µM; at Motilin receptor, over 30 µM. The AC50 in test [5] was 22.9 µM; in test [6], over 30 µM; in test [7], 6.19 µM; at D(3) dopamine receptor, over 30 µM.

Take `c1cnc2cc3c(cc2n1)[C@@H]1CNC[C@H]3C1` [VARENICLINE]: the AC50 (at Adenosine receptor A3; in [1]; in test [2]; in test [3]; in test [4]; at Motilin receptor) was over 30 µM each time. Also, the AC50 (in test [5]; in [6]; in [7]; on D(3) dopamine receptor) was over 30 µM each time.

On to `Nc1c2c(nc3ccccc13)CCCC2O` (stereo not given) [VELNACRINE], for which the AC50 (on Adenosine receptor A3; in [1]; in test [2]; in test [3]; in [4]; on Motilin receptor) was over 30 µM throughout. Further, the AC50 (in [5]; in [6]; in test [7]; on D(3) dopamine receptor) was over 30 µM each time.
